{"source": "patent US20260285850A1", "about": "“SUBSTITUTED OXAZOLIDINONES AND IMIDAZOLINONES AS HERBICIDES” (FMC CORPORATION, priority 2023, published 2026)", "format_in_all_cases": "in vivo", "key": {"[1]": {"system": "oat, wild (wild oat, Avena fatua)", "assay": "Test A postemergence application, visual injury rating 0-100", "details": "Postemergence", "from_the_text": "(§1) Seeds of plant species selected from barnyardgrass (Echinochloa crus-galli), blackgrass (Alopecurus myosuroides), corn (Zea mays), foxtail, giant (giant foxtail, Setaria faberi), green foxtail (Setaria viridis), goosegrass (Eleusine indica), kochia (Bassia scoparia), oat, wild (wild oat, Avena fatua), palmer (palmer amaranth, palmer pigweed, Amaranthus palmeri), ragweed (common ragweed, Ambrosia artemisiifolia), ryegrass, Italian (italian ryegrass, Lolium multiflorum), soybean (Glycine max) and wheat (Triticum aestivum) were planted into a blend of loam soil and sand and treated preemergence with a directed soil spray using test chemicals formulated in a non-phytotoxic solvent mixture which included a surfactant.\n(§2) At the same time, plants selected from these crops and weed species and also galium (catchweed bedstraw, Galium aparine) and horseweed (Erigeron canadensis) were planted in pots containing the same blend of loam soil and sand and treated with postemergence applications of test chemicals formulated in the same manner. Plants ranged in height from 2 to 10 cm and were in the one- to two-leaf stage for the postemergence treatment. Treated plants and untreated controls were maintained in a greenhouse for 10 days, after which time all treated plants were compared to untreated controls and visually evaluated for injury. Plant response ratings, summarized in Table A, are based on a 0 to 100 scale where 0 is no effect and 100 is complete control. A dash (-) response means no test result."}, "[2]": {"system": "ryegrass, Italian (italian ryegrass, Lolium multiflorum)", "assay": "Test A postemergence application, visual injury rating 0-100", "details": "Postemergence", "from_the_text": "as §1, §2"}, "[3]": {"system": "wheat (Triticum aestivum)", "assay": "Test A postemergence application, visual injury rating 0-100", "details": "Postemergence", "from_the_text": "as §1, §2"}, "[4]": {"system": "galium (catchweed bedstraw, Galium aparine)", "assay": "Test A postemergence application, visual injury rating 0-100", "details": "Postemergence", "from_the_text": "as §1, §2"}, "[5]": {"system": "horseweed (Erigeron canadensis)", "assay": "Test A postemergence application, visual injury rating 0-100", "details": "Postemergence", "from_the_text": "as §1, §2"}, "[6]": {"system": "ragweed (common ragweed, Ambrosia artemisiifolia)", "assay": "Test A postemergence application, visual injury rating 0-100", "details": "Postemergence", "from_the_text": "as §1, §2"}, "[7]": {"system": "palmer (palmer amaranth, palmer pigweed, Amaranthus palmeri)", "assay": "Test A postemergence application, visual injury rating 0-100", "details": "Postemergence", "from_the_text": "as §1, §2"}, "corn (Zea mays) [8]": {"system": "corn (Zea mays)", "assay": "Test A postemergence application, visual injury rating 0-100", "details": "Postemergence", "from_the_text": "as §1, §2"}, "[9]": {"system": "barnyardgrass (Echinochloa crus-galli)", "assay": "Test A postemergence application, visual injury rating 0-100", "details": "Postemergence", "from_the_text": "as §1, §2"}, "soybean (Glycine max) [10]": {"system": "soybean (Glycine max)", "assay": "Test A postemergence application, visual injury rating 0-100", "details": "Postemergence", "from_the_text": "as §1, §2"}, "[11]": {"system": "blackgrass (Alopecurus myosuroides)", "assay": "Test A postemergence application, visual injury rating 0-100", "details": "Postemergence", "from_the_text": "as §1, §2"}, "kochia (Bassia scoparia) [12]": {"system": "kochia (Bassia scoparia)", "assay": "Test A postemergence application, visual injury rating 0-100", "details": "Postemergence", "from_the_text": "as §1, §2"}, "[13]": {"system": "oat, wild (wild oat, Avena fatua)", "assay": "Test A preemergence soil spray, visual injury rating 0-100", "details": "10 days, 0 = no effect, 100 = complete control", "from_the_text": "as §1, §2"}, "[14]": {"system": "ryegrass, Italian (italian ryegrass, Lolium multiflorum)", "assay": "Test A preemergence soil spray, visual injury rating 0-100", "details": "10 days, 0 = no effect, 100 = complete control", "from_the_text": "as §1, §2"}, "[15]": {"system": "wheat (Triticum aestivum)", "assay": "Test A preemergence soil spray, visual injury rating 0-100", "details": "10 days, 0 = no effect, 100 = complete control", "from_the_text": "as §1, §2"}, "[16]": {"system": "ragweed (common ragweed, Ambrosia artemisiifolia)", "assay": "Test A preemergence soil spray, visual injury rating 0-100", "details": "10 days, 0 = no effect, 100 = complete control", "from_the_text": "as §1, §2"}, "[17]": {"system": "palmer (palmer amaranth, palmer pigweed, Amaranthus palmeri)", "assay": "Test A preemergence soil spray, visual injury rating 0-100", "details": "10 days, 0 = no effect, 100 = complete control", "from_the_text": "as §1, §2"}, "corn (Zea mays) [18]": {"system": "corn (Zea mays)", "assay": "Test A preemergence soil spray, visual injury rating 0-100", "details": "10 days, 0 = no effect, 100 = complete control", "from_the_text": "as §1, §2"}, "[19]": {"system": "barnyardgrass (Echinochloa crus-galli)", "assay": "Test A preemergence soil spray, visual injury rating 0-100", "details": "10 days, 0 = no effect, 100 = complete control", "from_the_text": "as §1, §2"}, "soybean (Glycine max) [20]": {"system": "soybean (Glycine max)", "assay": "Test A preemergence soil spray, visual injury rating 0-100", "details": "10 days, 0 = no effect, 100 = complete control", "from_the_text": "as §1, §2"}, "[21]": {"system": "blackgrass (Alopecurus myosuroides)", "assay": "Test A preemergence soil spray, visual injury rating 0-100", "details": "10 days, 0 = no effect, 100 = complete control", "from_the_text": "as §1, §2"}, "kochia (Bassia scoparia) [22]": {"system": "kochia (Bassia scoparia)", "assay": "Test A preemergence soil spray, visual injury rating 0-100", "details": "10 days, 0 = no effect, 100 = complete control", "from_the_text": "as §1, §2"}, "[23]": {"details": "31 g ai/ha, greenhouse 10 days, 0 no effect, 100 complete control"}, "[24]": {"details": "125 g ai/ha, 10 days, 0 is no effect, 100 is complete control"}}, "data": [{"smiles": "CCCS(=O)(=O)OC(=O)C1C=CC(NC(=O)C2(C)CN(c3cc(Cl)cc(Cl)c3)C(=O)O2)C1", "note": "(mixture of isomers) [Compound 79]", "values": [{"measurement": "Oat, Wild plant response rating (0 to 100 scale)", "setting": "[1]; [23]", "result": 90}, {"measurement": "Oat, Wild plant response rating (0 to 100 scale)", "setting": "[1]; [24]", "result": 90}, {"measurement": "Ryegrass, Italian plant response rating (0 to 100 scale)", "setting": "[2]; [23]", "result": 50}, {"measurement": "Ryegrass, Italian plant response rating (0 to 100 scale)", "setting": "[2]; [24]", "result": 60}, {"measurement": "Wheat plant response rating (0 to 100 scale)", "setting": "[3]; [23]", "result": 80}, {"measurement": "Wheat plant response rating (0 to 100 scale)", "setting": "[3]; [24]", "result": 90}, {"measurement": "Galium plant response rating (0 to 100 scale)", "setting": "[4]; [23]", "result": 80}, {"measurement": "Galium plant response rating (0 to 100 scale)", "setting": "[4]; [24]", "result": 80}, {"measurement": "Horseweed plant response rating (0 to 100 scale)", "setting": "[5]; [23]", "result": 40}, {"measurement": "Horseweed plant response rating (0 to 100 scale)", "setting": "[5]; [24]", "result": 70}, {"measurement": "Ragweed plant response rating (0 to 100 scale)", "setting": "[6]; [23]", "result": 50}, {"measurement": "Ragweed plant response rating (0 to 100 scale)", "setting": "[6]; [24]", "result": 60}, {"measurement": "Amaranth, Palmer / Pigweed, Palmer plant response rating (0 to 100 scale)", "setting": "[7]; [23]", "result": 70}, {"measurement": "Amaranth, Palmer / Pigweed, Palmer plant response rating (0 to 100 scale)", "setting": "[7]; [24]", "result": 90}, {"measurement": "Corn plant response rating (0 to 100 scale)", "setting": "corn (Zea mays) [8]; [23]", "result": 90}, {"measurement": "Corn plant response rating (0 to 100 scale)", "setting": "corn (Zea mays) [8]; [24]", "result": 100}, {"measurement": "Barnyardgrass plant response rating (0 to 100 scale)", "setting": "[9]; [23]", "result": 90}, {"measurement": "Barnyardgrass plant response rating (0 to 100 scale)", "setting": "[9]; [24]", "result": 90}, {"measurement": "Soybean plant response rating (0 to 100 scale)", "setting": "soybean (Glycine max) [10]; [23]", "result": 40}, {"measurement": "Soybean plant response rating (0 to 100 scale)", "setting": "soybean (Glycine max) [10]; [24]", "result": 90}, {"measurement": "Blackgrass plant response rating (0 to 100 scale)", "setting": "[11]; [23]", "result": 60}, {"measurement": "Blackgrass plant response rating (0 to 100 scale)", "setting": "[11]; [24]", "result": 90}, {"measurement": "Kochia plant response rating (0 to 100 scale)", "setting": "kochia (Bassia scoparia) [12]; [23]", "result": 70}, {"measurement": "Kochia plant response rating (0 to 100 scale)", "setting": "kochia (Bassia scoparia) [12]; [24]", "result": 80}, {"measurement": "Oat, Wild plant response rating (0-100)", "setting": "[13]; 31 g ai/ha", "result": 20}, {"measurement": "Oat, Wild plant response rating (0 to 100 scale)", "setting": "[13]; 125 g ai/ha", "result": 30}, {"measurement": "Ryegrass, Italian plant response rating (0-100)", "setting": "[14]; 31 g ai/ha", "result": 20}, {"measurement": "Ryegrass, Italian plant response rating (0 to 100 scale)", "setting": "[14]; 125 g ai/ha", "result": 80}, {"measurement": "Wheat plant response rating (0-100)", "setting": "[15]; 31 g ai/ha", "result": 10}, {"measurement": "Wheat plant response rating (0 to 100 scale)", "setting": "[15]; 125 g ai/ha", "result": 80}, {"measurement": "Ragweed plant response rating (0-100)", "setting": "[16]; 31 g ai/ha", "result": 0}, {"measurement": "Ragweed plant response rating (0 to 100 scale)", "setting": "[16]; 125 g ai/ha", "result": 20}, {"measurement": "Amaranth, Palmer plant response rating (0-100)", "setting": "[17]; 31 g ai/ha", "result": 80}, {"measurement": "Amaranth, Palmer plant response rating (0 to 100 scale)", "setting": "[17]; 125 g ai/ha", "result": 90}, {"measurement": "Corn plant response rating (0-100)", "setting": "corn (Zea mays) [18]; 31 g ai/ha", "result": 0}, {"measurement": "Corn plant response rating (0 to 100 scale)", "setting": "corn (Zea mays) [18]; 125 g ai/ha", "result": 30}, {"measurement": "Barnyardgrass plant response rating (0-100)", "setting": "[19]; 31 g ai/ha", "result": 30}, {"measurement": "Barnyardgrass plant response rating (0 to 100 scale)", "setting": "[19]; 125 g ai/ha", "result": 90}, {"measurement": "Soybean plant response rating (0-100)", "setting": "soybean (Glycine max) [20]; 31 g ai/ha", "result": 0}, {"measurement": "Soybean plant response rating (0 to 100 scale)", "setting": "soybean (Glycine max) [20]; 125 g ai/ha", "result": 70}, {"measurement": "Blackgrass plant response rating (0-100)", "setting": "[21]; 31 g ai/ha", "result": 10}, {"measurement": "Blackgrass plant response rating (0 to 100 scale)", "setting": "[21]; 125 g ai/ha", "result": 30}, {"measurement": "Kochia plant response rating (0-100)", "setting": "kochia (Bassia scoparia) [22]; 31 g ai/ha", "result": 30}, {"measurement": "Kochia plant response rating (0 to 100 scale)", "setting": "kochia (Bassia scoparia) [22]; 125 g ai/ha", "result": 70}]}]}
